Here are results for four molecules from PMC8799869, “D-enantiomers of CATH-2 enhance the response of macrophages against Streptococcus suis serotype 2” (Journal of Advanced Research, 2021).

Values after ≈ are worked out from the molar mass of the structure shown. Read-outs that look alike come from different tables or passages of the source. Where a SMILES comes first, the peptide text is derived from it. Where no end group is shown, it is not given here. [ ]: non-standard residue; d: D form.

The test system of test [1] is S. suis serotype 2 strain D282. The test is classed as cell-based, Streptococcus suis. Conditions: 3 h. The method, then: (§1) S. suis serotype 2 strains P1/7, D282, S735, and OV625 were grown into mid-logarithmic phase for 3–4 h at 37 °C in THB, after which bacteria were centrifuged at 1200×g for 10 min at 4 °C and resuspended in fresh THB. Bacterial concentration was determined by measuring optical density at 620 nm with an OD of 1.0 being equivalent to 1x10^8 colony forming units (CFU)/mL. 1x10^6 CFU/mL S. suis was mixed with different concentrations of D-CATH-2 and derivatives (0.63 – 40 µM) and incubated for 3 h at 37 °C. Ten-fold dilutions were prepared and spread in Tryptic Soy agar (TSA) plates containing 5% (v/v) defibrinated sheep blood (Oxoid) and colonies were allowed to grow for 48 h. Minimal Bactericidal Concentration (MBC) was defined as ≤100 CFU/mL (2 log CFU/mL), the detection limit of the assay.

Test [2] has as its system S. suis serotype 2 strain OV625. The test is classed as cell-based, Streptococcus suis. Conditions: 3 h. The method, then:
as §1

Test [3] deals with S. suis serotype 2 strain P1/7. The test is classed as cell-based, Streptococcus suis. The settings on record: 3 h. As to the method: as §1
The subject of test [4] is S. suis serotype 2 strain S735. The test is classed as cell-based, Streptococcus suis. The settings on record: 3 h. As to the method: as §1
A short description of test [5]: Isothermal titration calorimetry (ITC), peptide binding to LTA. The arrangement: species or system S. aureus. Conditions: 200 µM peptide titrated into 37.2 µM LTA-SA, MilliQ:dPBS 3:1, 37 °C, three experiments averaged, independent model, read-out: Kd, dissociation coefficient. As to the method: The interaction between the D-CATH-2 peptides and LTA-SA was tested using isothermal titration calorimetry (ITC). All ITC experiments were performed on a Low Volume NanoITC (TA instruments - Waters LLC, New Castle, USA). Peptide solution or 37.2 µM LTA-SA was prepared in MilliQ:dPBS (Gibco) in a 3:1 ratio. The chamber was filled with 164 µL LTA-SA and the peptide was loaded in the 50 µL syringe. Every 300 s, 1.99 µL peptide was titrated into the chamber at 37 °C. Data was analyzed using the Nano Analyze software (TA instruments-Waters LLC). The data of three experiments was averaged and an independent model was used to determine the peptide-LTA interaction.
In general terms: ITC needs no label: the signal is the heat of the interaction.

The test system of another test is murine BMDMs. Description: BMDM differentiation after peptide exposure at day 1, flow cytometry. The settings on record: 1.25 µM peptide at day 1 of culture for 24 h. The test is classed as cell-based, mouse. The method, then:
Murine bone marrow cells, isolated from the femur and tibia of both hindlegs, were stored in fetal calf serum (FCS) (Corning, NY, USA) containing 10% DMSO (Sigma-Aldrich, MO, USA) in liquid nitrogen. Cells were grown at a concentration of 5x10^5 cells/mL in RPMI-1640 without phenol red (Thermo Fisher Scientific, MA, USA) supplemented with 10% FCS and 1% penicillin/streptomycin (Thermo Fisher Scientific). Bone marrow-derived macrophages (BMDM) and bone marrow-derived dendritic cells (BMDC) were cultured by adding 20 ng/mL murine recombinant M−CSF or GM-CSF (PeproTech, NJ, USA) respectively. Where indicated, cells were supplemented with 1.25 µM peptide at day 1, which was replaced by fresh medium at day 2. The medium of all cells was replaced by fresh medium without antibiotics at day 3. At day 6 cells were stimulated with 1 µg/mL LTA from S. aureus (LTA-SA) (Invivogen, CA, USA) or with the different S. suis strains at a multiplicity of infection (MOI) of 0.2. Medium containing S. suis was removed after 2 h and replaced by medium containing 200 µg/mL gentamycin (Sigma) and left for an additional 22 h. After 24 h, medium was collected and stored at −20 °C for cytokine measurements. […] Cells were stained with antibodies (Table 1) for 20 min, washed and measured using aBD FACSCanto-II (BD Biosciences, NJ, USA) and analyzed with FlowJo software (Ashland, OR, USA).
Background: A flow cytometer gives signals particle by particle.

A further test relates to S. suis P1/7. The experiment in a line: In vivo prophylactic S. suis P1/7 infection model. Set-up: species or system mouse. As to the method: Upon arrival, mice were allowed to acclimatize for at least 7 days before the start of the experiment. The experiment was performed as depicted in Fig. 5A. The experiment was repeated twice to obtain in total 4 mice in the control groups and 12 mice in the infection groups. At day 1, mice were subcutaneously injected in the neck region with 1 mg/kg D-C(1–21) in PBS/cholesterol or with PBS/cholesterol alone. Cholesterol was added 5% v/v, 2 mg/ml in ethanol. The peptide and control groups were blinded to avoid any influence by the researchers. After 24 h (group 1) or after 7 days (group 2), mice were intraperitoneally infected with 10^7 CFU S. suis P1/7 in THB or with THB alone as control. 24 h after infection, a few drops of blood were collected via cheek puncture for bacterial count. During the infection phase of the experiment, mice were checked every 12 h in the acute phase of disease (first 48 h) and thereafter daily until the end of the study. A cumulative clinical score was given to the mice as measure of disease using several parameters as depicted in Table 4, according to Seitz et al.. When a mouse obtained a clinical score of 2 for a minimum of 3 out of 8 scoring points two days in a row, or in case of severe weight loss (>20%), the mouse was euthanized for animal welfare reasons (humane end point (HEP)) and the organs were collected for bacterial counts as described hereafter. Seven days post infection all mice were sacrificed for further analysis. Mice were anesthetized using isoflurane and 1 mL blood was drawn via heart puncture, followed by cervical dislocation. The peritoneum was flushed with 5 mL PBS/0.5 mM EDTA and diluted in 10 mL ice cold PBS/0.5% FCS. Spleen, lungs, liver, lymph nodes (axillary, inguinal, and mesenteric), brain, kidney and bone marrow were collected and stored in ice cold PBS. All organs, except the bone marrow and lymph nodes were weighed using a Sartorius microbalance. The peritoneal lavage (PTL) samples were counted using the Countess II Automated Cell Counter (Invitrogen, CA, USA). The lungs, liver, brain and kidney were meshed through a 40 µm filter (BD Biosciences) with 5 mL PBS to obtain single cell suspensions. Spleen and lymph nodes were digested with digestion buffer (1.5 WU/mL liberase TL grade, 100 Units/ml recombinant DNAse I, both Roche) for 30 min at 37 °C and meshed through a 40 µm filter using 5 mL PBS/0.5 mM EDTA. The red blood cells of the blood and spleen were lysed using an isotonic ammonium chloride buffer (155 mM NH4Cl, 10 mM KHCO3, 0.1 mM EDTA) for 5–10 min on ice, washed 1x with PBS and were resuspended in FACS buffer (PBS/0.5% BSA). Bone marrow samples were flushed out the femur and tibia of both legs with 5 mL PBS and filtered through a 40 µm filter. A sample of the blood, bone marrow, spleen, peritoneal lavage and lymph nodes was taken and stained for 30 min with different antibody panels (Table 1) and measured using the BD FACS Canto-II and analyzed with FlowJo V8. Of the lungs, liver, brain, kidney, spleen and peritoneal lavage samples, a 10-fold serial dilution was prepared and the samples were plated on TSA plates containing 5% (v/v) defibrinated sheep blood. The colonies were allowed to grow for 48 h at 37 °C. The number of colonies were counted, with ≤ 100 CFU/mL (2 log CFU/mL) as detection limit of the assay and calculated as CFU/mg organ.

The subject of the next test is E. coli. Conditions: in ovo administration three days before hatch; cited from earlier work. The text has this: In this study injection of D-C(1–21) reduced disease severity and increased the survival rate, although the differ ...
The conditions of test [6]: previously shown; read-out: dissociation coefficient to LPS; cited from earlier work. As to the method:
Inhibition of LPS-induced, and to a lesser extent LTA-induced activation, is a widely studied immunomodulatory aspect of cathelicidins. […] The dissociation coefficient to LTA is with 2–10 µM much higher than previously shown for L-CATH-2 to LPS with a dissociation coefficient of 0.08 µM, [32] indicating a stronger binding to LPS than to LTA. However, since D-CATH-2 was highly efficient at inhibiting LTA-induced activation, it might also be that the inh ...

One may read the MBC as the smallest concentration meeting the test's criterion for killing. A low value points to greater bactericidal potency.

On to `CC[C@@H](C)[C@@H](NC(=O)[C@@H](CCCCN)NC(=O)[C@@H](CCCNC(=N)N)NC(=O)[C@@H](CC(C)C)NC(=O)[C@@H](Cc1ccccc1)NC(=O)[C@@H](CCCNC(=N)N)NC(=O)CNC(=O)[C@@H](Cc1ccccc1)NC(=O)[C@H](N)CCCNC(=N)N)C(=O)N[C@H](CCCNC(=N)N)C(=O)N[C@H](CCCNC(=N)N)C(=O)N[C@H](Cc1ccccc1)C(=O)N[C@H](CCCNC(=N)N)C(=O)N1CCC[C@@H]1C(=O)N[C@H](CCCCN)C(=O)N[C@@H](C(=O)N[C@@H](C(=O)N[C@@H](C(=O)N[C@@H](C(=O)N[C@@H](C(=O)N[C@H](CCC(N)=O)C(N)=O)[C@H](C)CC)[C@H](C)O)[C@H](C)CC)[C@H](C)O)C(C)C` [D-C(1–21)] (H-[dR][dF]G[dR][dF][dL][dR][dK][dI][dR][dR][dF][dR][dP][dK][dV][dT][dI][dT][dI][dQ]-NH2; N-terminus and C-terminus assumed), for which the minimal bactericidal concentration (MBC) is 2.5 to 5 µM in [1], 0.6 to 5 µM in [2], 2.5 µM (≈ 6.72 µg/mL) in test [3] and 2.5 µM (≈ 6.72 µg/mL) in test [4]. The Kd in test [5] came to 10200 nM. Also, in the test with murine BMDMs, the “BMDM differentiation efficiency, percentage of cells expressing F4/80 at day 6” value is reported as “most pronounced”. The cumulative clinical score result was “small reduction of cumulative clinical score” in the test with S. suis P1/7 (1 mg/kg s.c., infected 24 h post peptide injection, late stage of disease) and “reduction in cumulative clinical score” with S. suis P1/7 (1 mg/kg s.c., infected 7 days post peptide injection, acute phase of disease). Also, the survival entry with S. suis P1/7 (1 mg/kg s.c., infected either 24 h or 7 days post peptide injection) is “higher chance of survival”. Moreover, the “bodyweight loss up to 48 h post infection” value with S. suis P1/7 (1 mg/kg s.c., infected i.p. with 10^7 CFU 24 h or 7 d post peptide injection, same in control mice) is listed as “approximately 8%”. Besides, in the test with S. suis P1/7 (24 h D-C(1–21) treated mice), the “bacteria in the blood 7 days post infection” value was “no mice had bacteria left in the bloodstream”. In the test with S. suis P1/7 (24 h D-C(1–21) treated mice versus untreated, not statistically significant), the “number of S. suis positive organs per mouse” value was “generally less S. suis positive organs”. In addition, the “total CFU counts in organs” value with S. suis P1/7 (24 h D-C(1–21) treated mice versus untreated, not statistically significant, not found for 7 day treated mice) is “lower total CFU counts”. Moreover, the “S. suis bacteria in the bloodstream 24 h post infection” value with S. suis P1/7 (all mice, treated or not) is recorded as 10^5-10^6 CFU/mL. The “bacterial counts in organs of mice reaching the HEP” value with S. suis P1/7 (treated mice reaching HEP before the end of the study, especially in the brain) is “less bacterial counts”.

Turning to `CC[C@@H](C)[C@@H](NC(=O)[C@@H](CCCCN)NC(=O)[C@@H](CCCNC(=N)N)NC(=O)[C@@H](CC(C)C)NC(=O)[C@@H](Cc1ccccc1)NC(=O)[C@H](N)CCCNC(=N)N)C(=O)N[C@H](CCCNC(=N)N)C(=O)N[C@H](CCCNC(=N)N)C(=O)N[C@H](Cc1ccccc1)C(=O)N[C@H](CCCNC(=N)N)C(=O)N1CCC[C@@H]1C(=O)N[C@H](CCCCN)C(=O)N[C@@H](C(=O)N[C@@H](C(=O)N[C@@H](C(=O)N[C@@H](C(=O)N[C@@H](C(=O)N[C@H](CCC(N)=O)C(N)=O)[C@H](C)CC)[C@H](C)O)[C@H](C)CC)[C@H](C)O)C(C)C` [D-C(4–21)] (H-[dR][dF][dL][dR][dK][dI][dR][dR][dF][dR][dP][dK][dV][dT][dI][dT][dI][dQ]-NH2; N-terminus and C-terminus assumed), the MBC in test [1] is 2.5 to 5 µM; in [2], 1.25 to 2.5 µM; in test [3], 5 to 10 µM; in [4], 2.5 µM (≈ 5.82 µg/mL). Also, the Kd in test [5] was found to be 2120 nM.

In the case of `CC[C@@H](C)[C@@H](NC(=O)[C@@H](CCCCN)NC(=O)[C@@H](CCCNC(=N)N)NC(=O)[C@@H](CC(C)C)NC(=O)[C@@H](Cc1ccccc1)NC(=O)[C@@H](CCCNC(=N)N)NC(=O)CNC(=O)[C@@H](Cc1ccccc1)NC(=O)[C@H](N)CCCNC(=N)N)C(=O)N[C@H](CCCNC(=N)N)C(=O)N[C@H](CCCNC(=N)N)C(=O)N[C@H](Cc1ccccc1)C(=O)N[C@H](CCCNC(=N)N)C(=O)N1CCC[C@@H]1C(=O)N[C@H](CCCCN)C(=O)N[C@@H](C(=O)N[C@@H](C(=O)N[C@@H](C(=O)N[C@@H](C(=O)N[C@@H](C(=O)N[C@H](CCC(N)=O)C(=O)NCC(=O)N[C@H](CO)C(=O)N[C@H](C)C(=O)N[C@H](CCCNC(=N)N)C(=O)N[C@H](Cc1ccccc1)C(N)=O)[C@H](C)CC)[C@H](C)O)[C@H](C)CC)[C@H](C)O)C(C)C` [D-CATH-2] (H-[dR][dF]G[dR][dF][dL][dR][dK][dI][dR][dR][dF][dR][dP][dK][dV][dT][dI][dT][dI][dQ]G[dS][dA][dR][dF]-NH2; N-terminus assumed), the MBC is 2.5 to 5 µM in test [1], 1.25 to 5 µM in [2], 2.5 to 5 µM in test [3] and 1.25 to 2.5 µM in test [4]. For the same molecule, the Kd in test [5] stood at 3040 nM. In the test with E. coli, the “protection of chickens against infection” value is listed as “protects chickens up to 7 days post hatch”.

For the molecule “L-CATH-2: natural chicken cathelicidin-2 (RFGRFLRKIRRFRPKVTITIQGSARF-NH2)”, in test [6], the Kd is 80 nM.
